The values that follow come from patent US20100303790A1, “USE OF BILIVERDIN REDUCTASE (BVR) AND BVR PEPTIDE FRAGMENTS TO TREAT CORONARY DISORDERS” (UNIVERSITY OF ROCHESTER, priority 2009, published 2010).

Entries after “also recorded” stand apart in the source; their conditions may differ.

The subject of experiment [1] is rat neonatal cardiomyocytes. Nature of the experiment: BVR, HO-2 and HO-1 mRNA in isoproterenol-stimulated cardiomyocytes (RT-PCR). The class given is cell-based. As to conditions: 10 μM isoproterenol. The protocol: Neonatal Rat Cardiomyocytes: Primary cultures of neonatal rat cardiomyocytes were prepared as described previously (Ding et al., “Functional Role of Phosphodiesterase 3 in Cardiomyocyte Apoptosis: Implication in Heart Failure,” Circulation 111:2469-2476 (2005) which is hereby incorporated by reference in its entirety). Briefly, fragmented ventricular tissue from 1-2 day old Sprague-Dawley rats was subjected to multiple rounds of enzymatic digestion with collagenase II (Worthington, Lakewood, N.J.). The cells were then collected by low speed centrifugation at 4° C. Non-myocytes were removed by two rounds of pre-plating the cells on culture dishes. The enriched cardiomyocytes were cultured in DMEM with 10% FBS and 10% horse serum. The day after cell adhesion, 10 μM cytosine 1-β-D-arabinofuranoside (Sigma, St. Louis, Mo.) was added to inhibit the growth of contaminating non-myocytes.
Quantitative RT-PCR: Total RNA was isolated using Trizol reagent (Invitrogen). The first-strand cDNA synthesis and quantitative polymerase chain reaction (RT-PCR) were performed as previously described (Tudor et al., “Biliverdin Reductase is a Transporter of Haem into the Nucleus and is Essential for Regulation of HO-1 Gene Expression by Haematin,” Biochem J 413:405-416 (2008), which is hereby incorporated by reference in its entirety). The following primers were used for PCR analysis: […]
PCR products were resolved by electrophoresis and quantified by image analysis of stained gels.
The question of whether the increased synthesis of each protein required elevated levels of BVR and HO-2 mRNA was investigated by RT-PCR. […] HO-1 protein expression was not detected throughout the whole process of isoproterenol treatment up to 96 hours.

Experiment [2] in a line: Langendorff perfused heart: BVR and HO-2 protein by western blot. The class given is in vivo, rat. The conditions noted are these: 3 hours perfusion; for HO-2 protein expression: peptide 25 μM with 0.1 μM ISO; for BVR protein expression: peptide 25 μM. The protocol: Western Blot Analysis: Cell lysates were prepared by homogenization in RIPA buffer (40 mM Tris-HCl, pH 7.5, 1 mM EDTA, 1 mM DTT, 0.1 mM Na3VO4, 10 μg/ml aprotinin, 5 μg/ml pepstatin, 20 μg/ml leupeptin, 1 mM bezamidine followed by centrifugation at 800×g for 10 minutes at 4° C. (Ding et al., “Functional Role of Phosphodiesterase 3 in Cardiomyocyte Apoptosis: Implication in Heart Failure,” Circulation 111:2469-2476 (2005), which is hereby incorporated by reference in its entirety). Supernatant proteins were resolved by SDS-PAGE and transferred to nitrocellulose. Western blots were examined using antibodies against β-actin (Cell Signaling), BVR (Huang et al., “Detection of 10 Variants of Biliverdin Reductase in Rat Liver by Two-Dimensional Gel Electrophoresis,” J Biol Chem 264:7844-7849 (1989), which is hereby incorporated by reference in its entirety), HO-1, HO-2 (Panahian et al., “Site of Injury-Directed Induction of Heme Oxygenase-1 and -2 in Experimental Spinal Cord Injury Differential Functions in Neuronal Defense Mechanisms?” J Neurochem 76:539-554 (2001), which is hereby incorporated by reference in its entirety), and cleaved caspase-3 (Cell Signaling, Beverly Mass.). The secondary antibody was horseradish peroxidase-conjugated goat anti-rabbit IgG (1:2,000, Bio-Rad).
In Vivo Experimental Langendorff Model: Male Sprague-Dawley rats weighing 250-300 g (Charles River, Boston, Mass.) were used in this study; the protocol is based on that described by Tompkins et al., “Mitochondrial Dysfunction in Cardiac Ischemia-Reperfusion Injury: ROS From Complex I, Without Inhibition,” Biochim Biophys Acta 1762:223-231 (2006), which is hereby incorporated by reference in its entirety, with minor modification. The rats were fed a standard rat chow and had water ad libitum. All experiments were approved by the University of Rochester Institutional Animal Care and Use Committee. Rats were given two subcutaneous injections of isoproterenol (ISO) (0.01 mg/kg), 6 hours apart, then anesthetized with freshly prepared Avertin (2,2,2-tribromoethanol, […] injected intraperitoneally), and treated with heparin (5000 U/kg), i.p., to protect the heart against microthrombi. The aorta was cannulated in situ with a 22-gauge needle filled with warm Krebs-Henseleit (KH) buffer. The heart was rapidly transferred (<10 s.) to a perfusion apparatus, and retrograde (Langendorff) perfusion begun with 37° C. KH buffer gassed with 95% O2 plus 5% CO2, in constant flow mode (12 ml/min). […] Hemodynamics and heart rate were recorded by inserting a water-filled balloon connected to a transducer (Radnoti LLC, model no. 159904B) into the left ventricle. […]
In general terms: In western blotting, separated proteins are transferred to a membrane and probed.

As for `CC(C)NCC(O)c1ccc(O)c(O)c1` (stereo not shown) [isoproterenol], in experiment [1], the “HO-2 mRNA content” value is listed as “remained unchanged”, the “level of BVR mRNA” value is “increased” and the “level of HO-1 mRNA” value was “transient increase”.
With “KKRILHC (biliverdin reductase peptide) [KKRILHC^281]”, in experiment [2], the HO-2 protein expression result was “inhibited the BVR-induced HO-2 increase; also recorded: virtually eliminated the induction of HO-2” and the BVR protein expression result is “do not affect protein expression”.
Taken in the same sequence, the figures for “KYCCSRK (biliverdin reductase peptide) [KYCCSRK^296]” were “increased HO-2 protein expression; also recorded: greatly enhanced increase of HO-2 protein” and “do not affect protein expression”.
